Measurements published in ChEMBL document CHEMBL1201862, “PubChem BioAssay data set” (2004).
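In this assay, cells in 96-well plates receive the compound at five concentrations for 48 hours. Endpoints are linearly interpolated between the surrounding concentrations. Abbreviation: GI50, concentration required for 50% inhibition of growth.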 The source made the active and inactive calls. Cut-off read from the data, not from the text of the source: active = GI50 up to about 1.1 µM and inactive = higher.

Legend:
Test in all cases: DTP human tumour cell line panel, 48 h
HOP-62 = tested on: HOP-62
ACHN = tested on: ACHN
PC-3 = tested on: PC-3
SF-539 = tested on: SF-539
OVCAR-8 = tested on: OVCAR-8
TK-10 = tested on: TK-10
UO-31 = tested on: UO-31
786-0 = tested on: 786-0
SK-OV-3 = tested on: SK-OV-3
MDA-MB-231 = tested on: MDA-MB-231
K562 = tested on: K562
HT-29 = tested on: HT-29
IGROV-1 = tested on: IGROV-1
T47D = tested on: T47D
HOP-92 = tested on: HOP-92
NCI-H226 = tested on: NCI-H226
MOLT-4 = tested on: MOLT-4
CCRF-CEM = tested on: CCRF-CEM
A498 = tested on: A498
LOX IMVI = tested on: LOX IMVI
SW-620 = tested on: SW-620
SNB-19 = tested on: SNB-19
NCI/ADR-RES = tested on: NCI/ADR-RES
MDA-MB-435 = tested on: MDA-MB-435
MDA-N = tested on: MDA-N
DU-145 = tested on: DU-145
NCI-H23 = tested on: NCI-H23
HCT-116 = tested on: HCT-116
HL-60 = tested on: HL-60
Hs-578T = tested on: Hs-578T
SK-MEL-28 = tested on: SK-MEL-28
HCC 2998 = tested on: HCC 2998
COLO 205 = tested on: COLO 205
OVCAR-4 = tested on: OVCAR-4
BT-549 = tested on: BT-549
OVCAR-3 = tested on: OVCAR-3
UACC-257 = tested on: UACC-257
UACC-62 = tested on: UACC-62
SK-MEL-2 = tested on: SK-MEL-2
HCT-15 = tested on: HCT-15
KM12 = tested on: KM12
U-251 = tested on: U-251
RPMI-8226 = tested on: RPMI-8226
SN12C = tested on: SN12C
NCI-H522 = tested on: NCI-H522
OVCAR-5 = tested on: OVCAR-5
CAKI-1 = tested on: CAKI-1
EKVX = tested on: EKVX
Malme-3M = tested on: Malme-3M
M14 = tested on: M14
NCI-H460 = tested on: NCI-H460
MCF7 = tested on: MCF7
SK-MEL-5 = tested on: SK-MEL-5
A549 = tested on: A549
SF-295 = tested on: SF-295
SNB-75 = tested on: SNB-75
RXF 393 = tested on: RXF 393
SF-268 = tested on: SF-268

Q: Which results are given for CCOC(=O)C1(NC(=O)OC(C)(C)C)CCc2[nH]oc(=O)c2C1 (stereo unspecified)?
A: GI50 (HOP-62): > 100 µM (inactive); GI50 (ACHN): > 100 µM (inactive); GI50 (PC-3): > 100 µM (inactive); GI50 (SF-539): > 100 µM (inactive); GI50 (OVCAR-8): > 100 µM (inactive); GI50 (TK-10): > 100 µM (inactive); GI50 (UO-31): > 100 µM (inactive); GI50 (786-0): > 100 µM (inactive); GI50 (SK-OV-3): > 100 µM (inactive); GI50 (MDA-MB-231): > 100 µM (inactive); GI50 (K562): > 100 µM (inactive); GI50 (HT-29): > 100 µM (inactive); GI50 (IGROV-1): > 100 µM (inactive); GI50 (T47D): > 100 µM (inactive); GI50 (HOP-92): > 100 µM (inactive); GI50 (NCI-H226): > 100 µM (inactive); GI50 (MOLT-4): > 100 µM (inactive); GI50 (CCRF-CEM): > 100 µM (inactive); GI50 (A498): > 100 µM (inactive); GI50 (LOX IMVI): > 100 µM (inactive); GI50 (SW-620): > 100 µM (inactive); GI50 (SNB-19): > 100 µM (inactive); GI50 (NCI/ADR-RES): > 100 µM (inactive); GI50 (MDA-MB-435): > 100 µM (inactive); GI50 (MDA-N): > 100 µM (inactive); GI50 (DU-145): > 100 µM (inactive); GI50 (NCI-H23): > 100 µM (inactive); GI50 (HCT-116): > 100 µM (inactive); GI50 (HL-60): > 100 µM (inactive); GI50 (Hs-578T): > 100 µM (inactive); GI50 (SK-MEL-28): > 100 µM (inactive); GI50 (HCC 2998): > 100 µM (inactive); GI50 (COLO 205): > 100 µM (inactive); GI50 (OVCAR-4): > 100 µM (inactive); GI50 (BT-549): > 100 µM (inactive); GI50 (OVCAR-3): > 100 µM (inactive); GI50 (UACC-257): > 100 µM (inactive); GI50 (UACC-62): > 100 µM (inactive); GI50 (SK-MEL-2): > 100 µM (inactive); GI50 (HCT-15): > 100 µM; GI50 (KM12): 9.95 µM (inactive); GI50 (U-251): > 100 µM (inactive); GI50 (RPMI-8226): > 100 µM (inactive); GI50 (SN12C): > 100 µM (inactive); GI50 (NCI-H522): > 100 µM (inactive); GI50 (OVCAR-5): > 100 µM (inactive); GI50 (CAKI-1): > 100 µM (inactive); GI50 (EKVX): > 100 µM (inactive); GI50 (Malme-3M): > 100 µM (inactive); GI50 (M14): > 100 µM (inactive); GI50 (NCI-H460): > 100 µM (inactive); GI50 (MCF7): > 100 µM (inactive); GI50 (SK-MEL-5): > 100 µM (inactive); GI50 (A549): > 100 µM (inactive); GI50 (SF-295): > 100 µM (inactive); GI50 (SNB-75): > 100 µM (inactive)

Q: Which results are given for COC(=O)C1=C(OC)C(=P2(c3ccccc3)CC(c3ccccc3)=C2c2ccccc2)C(C(=O)OC)=C1C(=O)OC (stereo unspecified)?
A: GI50 (HOP-62): > 100 µM (inactive); GI50 (ACHN): 49.8 µM (inactive); GI50 (PC-3): 10.8 µM (inactive); GI50 (SF-539): 23.6 µM (inactive); GI50 (OVCAR-8): > 95.7 µM (inactive); GI50 (TK-10): > 20.2 µM (inactive); GI50 (UO-31): 14.9 µM (inactive); GI50 (786-0): 27.4 µM (inactive); GI50 (RXF 393): 18.1 µM (inactive); GI50 (SK-OV-3): > 61.5 µM (inactive); GI50 (MDA-MB-231): > 72.8 µM (inactive); GI50 (K562): 4.58 µM (inactive); GI50 (IGROV-1): 22.2 µM (inactive); GI50 (T47D): 15.5 µM (inactive); GI50 (NCI-H226): 68.9 µM (inactive); GI50 (MOLT-4): 3.17 µM (inactive); GI50 (CCRF-CEM): 0.745 µM (active); GI50 (LOX IMVI): 25.1 µM (inactive); GI50 (SW-620): 14.6 µM (inactive); GI50 (SNB-19): 67.1 µM (inactive); GI50 (NCI/ADR-RES): > 82.4 µM (inactive); GI50 (MDA-MB-435): 40.7 µM (inactive); GI50 (MDA-N): 38 µM (inactive); GI50 (DU-145): > 61.2 µM (inactive); GI50 (NCI-H23): 33.8 µM (inactive); GI50 (HCT-116): 22.8 µM (inactive); GI50 (HL-60): 0.968 µM (active); GI50 (Hs-578T): > 100 µM (inactive); GI50 (SF-268): > 61.1 µM (inactive); GI50 (SK-MEL-28): > 68.5 µM (inactive); GI50 (HCC 2998): > 100 µM (inactive); GI50 (COLO 205): 18.8 µM (inactive); GI50 (OVCAR-4): 19.5 µM (inactive); GI50 (BT-549): > 76.6 µM (inactive); GI50 (OVCAR-3): 35 µM (inactive); GI50 (UACC-257): > 71.1 µM (inactive); GI50 (UACC-62): 61.2 µM (inactive); GI50 (SK-MEL-2): 54.5 µM (inactive); GI50 (HCT-15): 11 µM; GI50 (KM12): 27.5 µM (inactive); GI50 (U-251): 19.9 µM (inactive); GI50 (RPMI-8226): 9.42 µM (inactive); GI50 (SN12C): 31.8 µM (inactive); GI50 (NCI-H522): 2.65 µM (inactive); GI50 (OVCAR-5): > 100 µM (inactive); GI50 (CAKI-1): 50.4 µM (inactive); GI50 (EKVX): > 91.8 µM (inactive); GI50 (Malme-3M): 29.9 µM (inactive); GI50 (M14): 43.5 µM (inactive); GI50 (NCI-H460): 15 µM (inactive); GI50 (MCF7): 7.55 µM (inactive); GI50 (SK-MEL-5): 15.7 µM (inactive); GI50 (A549): 26.4 µM (inactive); GI50 (SF-295): > 76.6 µM (inactive); GI50 (SNB-75): 41.6 µM (inactive)
